The nature of the series: Solubility of acidic dye and by-product in solvents, rated by filter cake weight. The format is physicochemical. As to conditions: 10 g solvent, filtered 0.2 μm, dried filter cake weighed. As for the experimental part: The acidic dye was C. I. Acid Blue 290. The acidic dye was added to 10 g of each organic solvent and the organic solvent was agitated, whereby the acidic dye was dissolved in the organic solvent. A solution thereby obtained was filtered through an Omnipore membrane filter, having a pore size of 0.2 μm, available from Nihon Millipore K.K. A filter cake thereby obtained was dried and then weighed. A by-product represented by the following formula was measured for solubility in the same manner as that used to measure the acidic dye:
The solubility of the acidic dye and by-product in each organic solvent was evaluated on the basis of the weight of the filter cakes. Evaluation standards were as described below.
A rating of 5: 0 to less than 0.2 g of a filter cake
A rating of 4: 0.2 to less than 0.4 g of a filter cake
A rating of 3: 0.4 to less than 0.6 g of a filter cake
A rating of 2: 0.6 to less than 0.8 g of a filter cake
A rating of 1: 0.8 g or more of a filter cake

C. I. Acid Blue 290 [Acidic dye]: the Solubility rating (Acetone) is reported as 1 (A rating of 1: 0.8 g or more of a filter cake); the Solubility rating (Acrylonitrile) is 3 (A rating of 3: 0.4 to less than 0.6 g of a filter cake); the Solubility rating (Chloroform) was 4 (A rating of 4: 0.2 to less than 0.4 g of a filter cake); the Solubility rating (Ethanol) is given as 3 (A rating of 3: 0.4 to less than 0.6 g of a filter cake); the Solubility rating (Hexane) was 2 (A rating of 2: 0.6 to less than 0.8 g of a filter cake); the Solubility rating (Methanol) is 5 (A rating of 5: 0 to less than 0.2 g of a filter cake). Besides, the Solubility rating (Tetrahydrofuran) is recorded as 4 (A rating of 4: 0.2 to less than 0.4 g of a filter cake) and the Solubility rating (Water) was 1 (A rating of 1: 0.8 g or more of a filter cake).

For the origin of these results see patent publication US20110092624A1, “INK COMPOSITION AND METHOD FOR PRODUCING THE SAME” (SEIKO EPSON CORPORATION, priority 2009, published 2011).
